The experiment has as its system S. aureus. As to the kind of experiment: Total viable count (TVC) plate counts of spiked samples (T0/T2). The experiment is classed as cell-based. Particulars: for TVC T2: 100 μL plated after 2 h at 37° C.; for TVC T0: 100 μL plated at time 0. As to the method: Test dilution(s) of organism was added to blood+antibiotic or blood only at 10 μL per mL of blood (sufficient prepared for experiment requirements). 100 μL plate count sample was taken (TO sample).
The inoculated samples were incubated at 37° C. (static) for 2-hour. 100 μL plate count sample was taken (T2 sample).
For the ‘rescue’ test, 5 mL of spiked blood+abx or blood only was treated with Momentum Capture Beads (Streptavidin-coated, −300 nm beads, Bio estapor, Merk Cat #BE-M 08/0.3) as below: • Momentum Capture Beads diluted in Detergent-free Microbial Binding Buffer (DMBB—Tris+NaCl)—50 μL beads:700 μL DMBB per clean-up • 750 μL of diluted beads added to 50 mL conical centrifuge tube • 5 mL of broth medium added to tube • 5 mL of spiked blood+abx or blood only added to tube • Incubate on ITL TherMix (Integrated Technologies Ltd. Kent, UK), 32.5° C./30 min/1000 rpm—ramped speed protocol • Magnetise on V&P magnet (V&P scientific Inc, CA, US) for 5 min then remove supernatant • Resuspend beads in 1 mL Detergent-free Wash Buffer (DWB—Tris+NaCl) off magnet and transfer to 2 mL Eppendorf flip-top tube on DynaMag-2 magnet (Thermo Fisher Scientific, Life Technologies Ltd. Paisley, UK) • Magnetise for 5 min then remove supernatant • Resuspend beads in 1 mL DWB off magnet then replace on DynaMag-2 magnet • Magnetise for 5 min then remove supernatant • Resuspend beads in 1 mL DWB, add to a fresh, unused blood culture bottle (BioMerieux SA culture bottle) containing standard blood culture growth medium using a vial adapter, and start incubation (adapter removed). • Blood culture bottles are incubated in the automated blood culture cabinet (BacT/ALERT BioMerieux) which records time to positivity. The “Flip” time is when a bottle turns positive as determined by the automated blood culture cabinet. • “Flip” time of each bottle is recorded. • Plate counts (Total Viable Count TVC) are recorded.
Day 2: Prepare ten-fold serial dilution of overnight culture in blood/broth as required • Antibiotic added to whole blood (defibrinated horse blood) at required level • Whole blood as no-antibiotic control • Test dilution(s) of organism added to blood+antibiotic or blood only at 10 μL per mL of blood (sufficient prepared for experiment requirements) • 100 μL plate count sample taken (TO sample) • 2-hour incubation at 37° C. (static), to mimic organism exposure to antimicrobials in the patient • 100 μL plate count sample taken (T2 sample) • 5 mL of spiked blood+abx or blood only added to blood culture bottle (using vial adapter) and incubation started (adapter removed) • 5 mL of spiked blood+abx or blood only (from same source) treated with Momentum Capture Beads as below: • 1. […]
Day 3: Plate counts recorded. […]

Setting [1] is: S. aureus spike dil 10-3 in blood + Piperacillin 96 ug/ml.
Where [2] appears, read: S. aureus spike dil 10-4 in blood + Piperacillin 96 ug/ml.

From patent US20240210394A1, “MICROORGANISM CAPTURE FROM ANTIMICROBIAL-CONTAINING SOLUTION” (MOMENTUM BIOSCIENCE LIMITED, priority 2019, published 2024) come the findings set out here.

Regarding `CCN1CCN(C(=O)N[C@@H](C(=O)N[C@@H]2C(=O)N3[C@@H]2SC(C)(C)[C@@H]3C(=O)O)c2ccccc2)C(=O)C1=O` [Piperacillin], under setting [1], the “TVC T2” value is listed as 2 and the “TVC T0” value turned out to be 98. Also, under setting [2], the “TVC T2” value was 0 and the “TVC T0” value is 15.
